Results reported in patent US9487501B2, “Pyrazole carboxamide compounds and uses thereof” (Hoffmann-La Roche Inc., priority 2012, dated 2016).
Structures can show the parent of a compound that is named as a salt.

What was measured:
mouse TAAR1 = mouse TAAR1 (Mus musculus (Mouse), UniProt Q923Y8); assay: Radioligand binding assay on mouse TAAR1; conditions: for Ki: read-out: Ki (μM) mouse, mouse TAAR1, membranes of HEK-293 cells, radioligand displacement
Experimental: (§1) For the generation of stably transfected cell lines HEK293 cells were transfected with the pIRESneo2 expression plasmids containing the TAAR coding sequences (described above) with Lipofectamine 2000 (Invitrogen) according to the instructions of the manufacturer, and 24 hrs post transfection the culture medium was supplemented with 1 mg/ml G418 (Sigma, Buchs, Switzerland). […] Radioligand Binding Assay on Rat TAAR1 Membrane Preparation and Radioligand Binding. […] Cells were released from culture flasks using trypsin/EDTA, harvested, washed twice with ice-cold PBS (without Ca^2+ and Mg^2+), pelleted at 1,000 rpm for 5 min at 4° C., frozen and stored at −80° C. Frozen pellets were suspended in 20 ml HEPES-NaOH (20 mM, pH 7.4) containing 10 mM EDTA and homogenized with a Polytron (PT 6000, Kinematica) at 14,000 rpm for 20 s. The homogenate was centrifuged at 48,000×g for 30 min at 4° C. Subsequently, the supernatant was removed and discarded, and the pellet resuspended in 20 ml HEPES-NaOH (20 mM, pH 7.4) containing 0.1 mM EDTA using the Polytron (20 s at 14,000 rpm). This procedure was repeated and the final pellet resuspended in HEPES-NaOH containing 0.1 mM EDTA and homogenized using the Polytron. Typically, aliquots of 2 ml membrane portions were stored at −80° C. With each new membrane batch the dissociation constant (Kd) was determined via a saturation curve. […] Nonspecific binding was defined as the amount of ^3[H]-(S)-4-[(ethyl-phenyl-amino)-methyl]-4,5-dihydro-oxazol-2-ylamine bound in the presence of 10 μM unlabeled ligand. All compounds were tested at a broad range of concentrations (10 pM to 10 μM) in duplicates. […] The 96 deep well plates were incubated for 1 hr at 4° C. Incubations were terminated by rapid filtration through Unifilter-96 plates (Packard Instrument Company) and glass filters GF/C (Perkin Elmer) presoaked for 1 hr in polyethylenimine (0.3%) and washed 3 times with 1 ml of cold binding buffer. After addition of 45 μl of Microscint 40 (PerkinElmer) the Unifilter-96 plate was sealed and after 1 hr the radioactivity counted using a TopCount Microplate Scintillation Counter (Packard Instrument Company). Radioligand Binding Assay on Mouse TAAR1 Membrane Preparation and Radioligand Binding. […] Cells were released from culture flasks using trypsin/EDTA, harvested, washed twice with ice-cold PBS (without Ca^2+ and Mg^2+), pelleted at 1,000 rpm for 5 min at 4° C., frozen and stored at −80° C. Frozen pellets were suspended in 20 ml HEPES-NaOH (20 mM, pH 7.4) containing 10 mM EDTA and homogenized with a Polytron (PT 6000, Kinematica) at 14,000 rpm for 20 s. The homogenate was centrifuged at 48,000×g for 30 min at 4° C. Subsequently, the supernatant was removed and discarded, and the pellet resuspended in 20 ml HEPES-NaOH (20 mM, pH 7.4) containing 0.1 mM EDTA using the Polytron (20 s at 14,000 rpm). This procedure was repeated and the final pellet resuspended in HEPES-NaOH containing 0.1 mM EDTA and homogenized using the Polytron. Typically, aliquots of 2 ml membrane portions were stored at −80° C. With each new membrane batch the dissociation constant (Kd) was determined via a saturation curve.

rat TAAR1 = rat TAAR1 (Rattus norvegicus (Rat), UniProt Q923Y9); assay: Radioligand binding assay on rat TAAR1; conditions: for Ki: read-out: Ki (μM) rat, rat TAAR1, membranes of HEK-293 cells, radioligand displacement;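 as to all read-outs here: stably transfected HEK293 cell membranes with a tritiated radioligand, 1 h incubation at 4 °C, nonspecific binding taken as binding with 10 µM unlabeled ligand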
Chain of rat TAAR1 (Q923Y9 whole entry): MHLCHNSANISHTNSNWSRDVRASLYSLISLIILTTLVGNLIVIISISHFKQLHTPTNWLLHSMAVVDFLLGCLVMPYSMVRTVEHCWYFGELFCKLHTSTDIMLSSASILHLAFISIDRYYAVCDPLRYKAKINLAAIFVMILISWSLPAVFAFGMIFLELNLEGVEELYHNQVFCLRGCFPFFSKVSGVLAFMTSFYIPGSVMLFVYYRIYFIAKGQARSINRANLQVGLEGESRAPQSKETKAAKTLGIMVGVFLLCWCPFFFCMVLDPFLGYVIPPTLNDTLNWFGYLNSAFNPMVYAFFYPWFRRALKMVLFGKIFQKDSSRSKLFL
Experimental: as §1

Chain of mouse TAAR1 (Q923Y8 whole entry): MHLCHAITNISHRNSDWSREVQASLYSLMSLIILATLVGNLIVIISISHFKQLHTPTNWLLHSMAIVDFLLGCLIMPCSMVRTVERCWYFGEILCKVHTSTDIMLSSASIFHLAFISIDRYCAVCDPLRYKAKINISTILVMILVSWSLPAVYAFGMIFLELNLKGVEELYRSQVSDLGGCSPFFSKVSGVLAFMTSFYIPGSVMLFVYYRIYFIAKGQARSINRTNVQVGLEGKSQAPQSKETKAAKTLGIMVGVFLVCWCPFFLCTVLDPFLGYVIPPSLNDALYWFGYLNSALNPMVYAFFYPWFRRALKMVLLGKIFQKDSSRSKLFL

Structure (SMILES) | Ki (mouse TAAR1) [µM] | Ki (rat TAAR1) [µM] | Kd (mouse TAAR1; read-out: dissociation constant (Kd) of the radioligand, mouse TAAR1 membranes, saturation curve) [nM] | Kd (rat TAAR1; read-out: dissociation constant (Kd) of the radioligand, rat TAAR1 membranes, saturation curve) [nM]
Cc1nn(-c2ccc(OC(F)F)cc2)cc1C(=O)Nc1ccc([C@H]2CNCCO2)cc1 [Example 32, (S)-1-(4-(difluoromethoxy)phenyl)-3-methyl-N-(4-(morpholin-2-yl)phenyl)-1H-pyrazole-4-carboxamide hydrochloride] | 0.0008 | 0.0002 | – | –
O=C(Nc1ccc([C@H]2CNCCO2)cc1)c1cnn(-c2cncc(Cl)n2)c1 [Example 33, (S)-1-(6-chloropyrazin-2-yl)-N-(4-(morpholin-2-yl)phenyl)-1H-pyrazole-4-carboxamide hydrochloride] | 0.0032 | 0.0068 | – | –
O=C(Nc1ccc([C@H]2CNCCO2)cc1)c1cnn(-c2ccnc(C(F)(F)F)n2)c1 [Example 34, (S)—N-(4-(morpholin-2-yl)phenyl)-1-(2-(trifluoromethyl)pyrimidin-4-yl)-1H-pyrazole-4-carboxamide hydrochloride] | 0.0054 | 0.0035 | – | –
Cc1c(C(=O)Nc2ccc([C@H]3CNCCO3)cc2)cnn1-c1ccc(C#N)cc1 [Example 35, (S)-1-(4-cyanophenyl)-5-methyl-N-(4-(morpholin-2-yl)phenyl)-1H-pyrazole-4-carboxamide hydrochloride] | 0.0601 | 0.167 | – | –
O=C(Nc1ccc([C@H]2CNCCO2)cc1)c1cnn(-c2ccnc(Cl)n2)c1 [Example 36, (S)-1-(2-chloropyrimidin-4-yl)-N-(4-(morpholin-2-yl)phenyl)-1H-pyrazole-4-carboxamide hydrochloride] | 0.0086 | 0.0054 | – | –
O=C(Nc1ccc([C@H]2CNCCO2)cc1)c1cnn(-c2ncc(C(F)(F)F)cn2)c1 [Example 37, (S)—N-(4-(morpholin-2-yl)phenyl)-1-(5-(trifluoromethyl)pyrimidin-2-yl)-1H-pyrazole-4-carboxamide hydrochloride] | 0.0615 | 0.0931 | – | –
O=C(Nc1ccc([C@H]2CNCCO2)cc1)c1cnn(-c2cncc(C(F)(F)F)n2)c1 [Example 38, (S)—N-(4-(morpholin-2-yl)phenyl)-1-(6-(trifluoromethyl)pyrazin-2-yl)-1H-pyrazole-4-carboxamide hydrochloride] | 0.0075 | 0.0059 | – | –
O=C(Nc1ccc([C@H]2CNCCO2)cc1)c1cnn(-c2nccnc2Cl)c1 [Example 41, (S)-1-(3-chloropyrazin-2-yl)-N-(4-(morpholin-2-yl)phenyl)-1H-pyrazole-4-carboxamide hydrochloride] | 0.0275 | 0.0814 | – | –
O=C(Nc1ccc([C@H]2CNCCO2)cc1)c1cnn(-c2cc(C(F)(F)F)ncn2)c1 [Example 44, (S)—N-(4-(morpholin-2-yl)phenyl)-1-(6-(trifluoromethyl)pyrimidin-4-yl)-1H-pyrazole-4-carboxamide hydrochloride] | 0.0099 | 0.0041 | – | –
N#Cc1cncc(-n2cc(C(=O)Nc3ccc([C@H]4CNCCO4)cc3)cn2)n1 [Example 47, (S)-1-(6-cyanopyrazin-2-yl)-N-(4-(morpholin-2-yl)phenyl)-1H-pyrazole-4-carboxamide hydrochloride] | 0.0195 | 0.0345 | – | –
N#Cc1ccc(-n2cc(C(=O)Nc3ccc([C@@H]4CNCCO4)cc3)cn2)c(F)c1 [Example 49, (R)-1-(4-cyano-2-fluorophenyl)-N-(4-(morpholin-2-yl)phenyl)-1H-pyrazole-4-carboxamide hydrochloride] | 0.0049 | 0.0033 | – | –
O=C(Nc1ccc([C@H]2CNCCO2)cc1)c1cnn(-c2ccc(C(F)(F)F)nc2)c1 [Example 51, (S)—N-(4-(morpholin-2-yl)phenyl)-1-(6-(trifluoromethyl)pyridin-3-yl)-1H-pyrazole-4-carboxamide hydrochloride] | 0.0064 | 0.0048 | – | –
O=C(Nc1ccc([C@H]2CNCCO2)cc1)c1cnn(-c2nc(C(F)(F)F)cs2)c1 [Example 57, (S)—N-(4-(morpholin-2-yl)phenyl)-1-(4-(trifluoromethyl)thiazol-2-yl)-1H-pyrazole-4-carboxamide hydrochloride] | 0.0019 | 0.0011 | – | –

The next lines start with the values.

Ki (mouse TAAR1) [µM] | Ki (rat TAAR1) [µM] | Kd (mouse TAAR1; read-out: dissociation constant (Kd) of the radioligand, mouse TAAR1 membranes, saturation curve) [nM] | Kd (rat TAAR1; read-out: dissociation constant (Kd) of the radioligand, rat TAAR1 membranes, saturation curve) [nM] | Structure (SMILES)
0.0088 | 0.0435 | – | – | Cc1cncc(-n2cc(C(=O)Nc3ccc([C@H]4CNCCO4)cc3)cn2)n1 [Example 39, (S)-1-(6-methylpyrazin-2-yl)-N-(4-(morpholin-2-yl)phenyl)-1H-pyrazole-4-carboxamide hydrochloride]
0.0119 | 0.126 | – | – | Cc1cnc(-n2cc(C(=O)Nc3ccc([C@H]4CNCCO4)cc3)cn2)cn1 [Example 40, (S)-1-(5-methylpyrazin-2-yl)-N-(4-(morpholin-2-yl)phenyl)-1H-pyrazole-4-carboxamide hydrochloride]
0.0199 | 0.0326 | – | – | N#Cc1cnc(-n2cc(C(=O)Nc3ccc([C@H]4CNCCO4)cc3)cn2)cn1 [Example 42, (S)-1-(5-cyanopyrazin-2-yl)-N-(4-(morpholin-2-yl)phenyl)-1H-pyrazole-4-carboxamide hydrochloride]
0.0554 | 0.315 | – | – | Cc1ccnc(-n2cc(C(=O)Nc3ccc([C@H]4CNCCO4)cc3)cn2)n1 [Example 43, (S)-1-(4-methylpyrimidin-2-yl)-N-(4-(morpholin-2-yl)phenyl)-1H-pyrazole-4-carboxamide hydrochloride]
0.0214 | 0.0059 | – | – | O=C(Nc1ccc([C@H]2CNCCO2)cc1)c1cnn(-c2cnc(C(F)(F)F)nc2)c1 [Example 45, (S)—N-(4-(morpholin-2-yl)phenyl)-1-(2-(trifluoromethyl)pyrimidin-5-yl)-1H-pyrazole-4-carboxamide hydrochloride]
0.0031 | 0.0056 | – | – | O=C(Nc1ccc([C@H]2CNCCO2)cc1)c1cnn(-c2cnc(Cl)cn2)c1 [Example 46, (S)-1-(5-chloropyrazin-2-yl)-N-(4-(morpholin-2-yl)phenyl)-1H-pyrazole-4-carboxamide hydrochloride]
0.0531 | 0.149 | – | – | O=C(Nc1ccc([C@H]2CNCCO2)cc1)c1cnn(-c2nccc(C(F)(F)F)n2)c1 [Example 48, (S)—N-(4-(morpholin-2-yl)phenyl)-1-(4-(trifluoromethyl)pyrimidin-2-yl)-1H-pyrazole-4-carboxamide hydrochloride]
0.0077 | 0.0038 | – | – | O=C(Nc1ccc([C@H]2CNCCO2)cc1)c1cnn(-c2ccnc(C(F)(F)F)c2)c1 [Example 50, (S)—N-(4-(morpholin-2-yl)phenyl)-1-(2-(trifluoromethyl)pyridin-4-yl)-1H-pyrazole-4-carboxamide hydrochloride]
0.0179 | 0.0451 | – | – | N#Cc1nccnc1-n1cc(C(=O)Nc2ccc([C@H]3CNCCO3)cc2)cn1 [Example 52, (S)-1-(3-cyanopyrazin-2-yl)-N-(4-(morpholin-2-yl)phenyl)-1H-pyrazole-4-carboxamide hydrochloride]
0.0051 | 0.0052 | – | – | O=C(Nc1ccc([C@H]2CNCCO2)cc1)c1cnn(-c2cc(C3CC3)ncn2)c1 [Example 56, (S)-1-(6-cyclopropylpyrimidin-4-yl)-N-(4-(morpholin-2-yl)phenyl)-1H-pyrazole-4-carboxamide hydrochloride]
– | – | ~0.7 | ~2.3 | CCN(C[C@H]1COC(N)=N1)c1ccccc1 [reference compound]
